# Results as given in patent US20250345458A1, “COMPLEXING AGENT SALT FORMULATIONS OF PHARMACEUTICAL COMPOUNDS AT LOW STOICHIOMETRIC RATIOS” (Bexson Biomedical, Inc., priority 2022, published 2025).
# Values joined by “and” are separate entries in the source; they are usually repeats but may differ in a detail not shown here. Identical values can stand only once. “Also recorded” adds a separate entry of the source. Counter-ions that a name gives are not always drawn. Marks after values point to notes of the source that are not given here.
# Columns and labels:
# [1] = pH of API formulations (pH meter); format: physicochemical; settings: for final pH: after 2M NaOH; for pH of the solution prior to titration: 70 mg/mL API FB, before NaOH/HCl
# [2] = Dissolution of API freebase in aqueous CapAcid / Captisol solutions at defined API:CapAcid ratios, visual inspection and NaOH titration
# [3] = in water, cited from earlier work; for Reported Freebase Solubility: vendor or literature value
# [4] = API-CapAcid salts prepared in ethanol, then 70 mg of solid added to 1 mL water (visual); format: physicochemical; settings: for pH of the ethanol solution prior to titration: API FB 100 mg + CapAcid 1 molar equivalent (H^+) in 10 mL 200 proof ethanol; for dissolution of 70 mg of the ethanol-prepared API-CapAcid solid in 1 mL water: visual, vortexed
# Description: The resulting solid API-CapAcid salts were then obtained as solids by evaporation of the ethanol, followed by lyophilization.
# In a scintillation vial, a solution of API FB (100 mg) and CapAcid (1 molar equivalent, moisture corrected) was prepared by dissolving Cap Acid in 200 proof ethanol (5 mL) and then adding the freebase API. […] Whether or not the freebase dissolved after the second addition of ethanol, the initial pH, prior to titration, was recorded. The vial was then wrapped in foil and left uncovered in the hood to allow the ethanol to evaporate. After the ethanol fully evaporated, a small amount of HPLC grade water (3-5 mL) was added to each to see if the product would dissolve or become a suspension in the water. The solution was then lyophilized to remove the water. The product was ground with a stir rod and 70±0.1 mg was added to 1 mL of water to see if it would dissolve.
# [5] = literature value; cited from earlier work
# [6] = cited from earlier work
# [7] = Osmolality of API formulations (micro osmometer, triplicate); format: physicochemical
# [8] = Visual dissolution / precipitation of API free base-CapAcid formulations at stated API:CapAcid ratios; format: physicochemical
# [9] = Concentration test of rimantadine HCl in water; format: physicochemical
# Description: A solution of 50 mg/mL rimantadine HCl, FB equivalents, (120.3 mg, 0.56 mmol), was prepared by adding 1.7 mL of HPLC grade water and an addition of a solution of benzethonium chloride (20 μL, […], 0.01% final concentration). […] It was diluted until it did dissolve, which took a total of 4.6 mL of HPLC (including the initial 1.7 mL). The solution was left to stir overnight. The solution was diluted to 5 mL, making the final concentration 20 mg/mL. The pH was 6.83 and the solution was filtered through a 0.20 micron syringe filter. The osmolality was 205 mOsm/kg.
# A separate test was performed on another 50 mg/mL solution of rimantadine HCl, FB equivalents (60.2 mg, 0.28 mmol), dissolved in 800 μL of HPLC grade water and an addition of a solution of benzethonium chloride (10 μL, 1 mg/mL, 0.01% final concentration).
# [10] = Osmolality of API formulations (micro osmometer, triplicate); format: physicochemical; remark: listed apart in the source
# Description: Osmolality readings were obtained on an Advanced Instruments Advanced™ Micro Osmometer Model 3300 (Advanced Instruments, Inc. Norwood, MA, USA). Saline solutions (0.9% and 3%) were run as positive controls. Each sample was calculated as the mean from back-to-back triplicate measurements. When replicate batches were measured, data was reported as mean±SEM.
# The procedure was performed on a 2 mL scale. […] Benzethonium chloride (20 μL of a 1% solution, 0.01% final concentration) was added via micropipette. The pH was adjusted to ˜7.00 with 2M sodium hydroxide, or either 1M or 2M HCl in some cases, and then the mixture was transferred to a 2 mL volumetric flask to be diluted with HPLC grade water. […]
# Method 1: In a 5 mL borosilicate glass test tube which contained a Teflon-coated magnetic stir bar, Captisol®-Na+ ([…], H+ equivalents, moisture corrected) was dissolved in HPLC grade water (1.6-1.7 mL), API salt (HCl in most cases) (70 mg/mL FB equivalents) was added and the mixture was stirred until a homogenous transparent solution formed. Benzethonium chloride (20 μL of a 1% solution, giving a 0.01% final concentration) was added via micropipette. The pH was adjusted to ˜7.00 with 1M or 2M sodium hydroxide, or either 1M or 2M HCl in some cases, and then the mixture was transferred to a 2 mL volumetric flask to be diluted with HPLC grade water. […]
# Benzethonium chloride (20 μL of a 1% solution, giving a 0.01% final concentration) was added via micropipette. The pH was adjusted to ˜7.00 with 1M or 2M sodium hydroxide, or either 1M or 2M HCl in some cases, and then the mixture transferred to a 2 mL volumetric flask to be diluted with HPLC grade water. […]
# The solution was transferred to a 2 mL volumetric flask and diluted to the target volume with HPLC grade water. […]
# [11] = cited from earlier work; remark: listed apart in the source
# [12] = Stability of tigecycline FB CapAcid solution on standing; format: physicochemical; settings: 70 mg/mL FB with 1.1 molar equivalents of CapAcid, FIG. 1A
# Description: The formulation of Tigecycline FB CapAcid was prepared as follows. The preparation procedure for Tigecycline FB CapAcid Formulation was modified from the general procedure. A solution of 70 mg/mL Tigecycline FB (69.9 mg, 0.12 mmol) and 1.1 equivalents of CapAcid, H^+ equivalents, (43.7 mg moisture corrected, 40.8 mg active, 0.02 mmol, 0.13 mmol H^+) was prepared by dissolving CapAcid in 700 μL of HPLC grade water, then adding the freebase and stirring until a homogenous solution formed. Benzethonium chloride (10 μL, 1 mg/mL, 0.01% final concentration) was added to the solution. NaOH (2M) was added until the pH was 7.00±0.01. The solution was diluted to 1 mL and the final pH was determined to be 6.99. […] The solution was filtered through a 0.45 micron syringe filter.
# [13] = 1:1 ratio of API to CapAcid (relative to the cyclodextrin), water
# [14] = 2:1 ratio of API to CapAcid, 100 mg FB in 30 mL water (3 mg/mL)
# [15] = concentration test solution diluted to 20 mg/mL, with benzethonium chloride
# [16] = 2:1 ratio of API to CapAcid (relative to the cyclodextrin), water
# [17] = 1 equivalent 6M HCl, 1.1 equivalents Captisol®-Na^+
# [18] = 70 mg/mL API FB and 1 equivalent of 6M HCl in water
# [19] = 70 mg/mL API FB, 1 equivalent of 6M HCl, 1.1 equivalents Captisol®-Na^+
# [20] = *70 mg/mL API FB + molar equivalent of 6M HCl in water
# [21] = API FB CapAcid formulation, 70 mg/mL API FB, 1.1 equivalents CapAcid (H^+ equivalents), after titration
# [22] = CapAcid-API Freebase Formulation (70 mg/mL API FB, 1.1 molar equivalent CapAcid), after pH titration with NaOH or HCl
# [23] = Captisol®-Na^+ formulation, *70 mg/mL API FB + 6M HCl, 1.1 molar equivalent Captisol®-Na^+
compound,measurement,setting,value
COc1c(OCCCN2CCOCC2)ccc2c1N=C(NC(=O)c1cnc(N)nc1)N1CCN=C21 [Copanlisib],pH of the solution before titration,[1]; 1:1 ratio of API to CapAcid,0.76
same,final pH,[1]; 1:1 ratio of API to CapAcid,6.13
same,pH of the solution before titration,[1]; 2:1 ratio of API to CapAcid,2.10
same,concentration (FB equivalents) at which the freebase dissolved,[2]; [13],33300 µg/mL
same,dissolution by visual inspection,[2]; [14],clear with a small amount of undissolved oil
same,pH at which precipitation occurred on titration with NaOH,"[2]; 2:1 ratio of API to CapAcid, target 3 mg/mL",2.20
same,Reported Freebase Solubility,[3],Insoluble^19
same,Reported Salt Solubility,[3],0.023 mg/mL^18
same,pH of the ethanol solution prior to titration,[4],0.66
same,dissolution of 70 mg of the ethanol-prepared API-CapAcid solid in 1 mL water,[4],became cloudy with a brown precipitate at the bottom
CCOC(=O)c1ncn2c1CN(C)C(=O)c1cc(F)ccc1-2 [Flumazenil],pKa,[5],2.87^21
same,Successful in a 70 mg/mL API-CapAcid Formulation (Y/N),"[2]; water, 70 mg/mL FB",unsuccessful
same,Reported Freebase Solubility,[3],1.2 mg/mL
CC(=O)[C@H]1CC[C@H]2[C@@H]3CC[C@H]4C[C@H](O)CC[C@]4(C)[C@H]3CC[C@]12C [Brexanolone],oral bioavailability,[6],poor
CC(N)C12CC3CC(CC(C3)C1)C2 (centres unmarked) [Rimantadine HCl],pH,[1]; [15],6.83
same,Osmolality,[7]; [15],205 mOsm/kg
same,dissolution state of the formulation,[8]; HCl,fully dissolved; also recorded: incompletely dissolved
same,"dissolution at 50 mg/mL, FB equivalents",[9]; HPLC grade water with 0.01% benzethonium chloride,did not dissolve
same,solubility,"[9]; pH 6.83, aqueous with cosolvent or surfactant or cyclodextrin, thermodynamic from solid, HPLC grade water, stirred overnight, read-out: concentration at which the salt was soluble in water (FB equivalents)",20 mg/mL
CCCN(CCc1cccs1)[C@H]1CCc2c(O)cccc2C1 [rotigotine],pKa (amine),[5],10.97
same,pKa (phenol),[5],10.03
same,pH of the solution before titration,[1]; 1:1 ratio of API to CapAcid,0.93
same,final pH,[1]; 1:1 ratio of API to CapAcid,5.49
same,pH of the solution before titration,[1]; 2:1 ratio of API to CapAcid,1.66
same,final pH,[1]; 2:1 ratio of API to CapAcid,5.51
same,solubility compared to higher API:captisol ratio,[8]; 1:1 ratio to captisol compared to 2:1 ratio,superior solubility
same,appearance at higher API:captisol ratio,[8]; 2:1 ratio to captisol,precipitation
same,concentration (FB equivalents) at which the freebase dissolved,[2]; [13],10000 µg/mL
same,concentration (FB equivalents) at which the freebase dissolved,[2]; [16],3000 µg/mL
same,dissolution by visual inspection,[2]; [14],most of the FB dissolved
same,Reported Salt Solubility,[3],3.51 mg/mL^17
same,pH of the ethanol solution prior to titration,[4],5.63
same,dissolution of 70 mg of the ethanol-prepared API-CapAcid solid in 1 mL water,[4],did not dissolve in water
CN1CCC[C@@H]1Cc1c[nH]c2ccc(CCS(=O)(=O)c3ccccc3)cc12 [eletriptan],pH of the solution before titration,[1]; 1:1 ratio of API to CapAcid,0.48
same,final pH,[1]; 1:1 ratio of API to CapAcid,6.06
same,pH of the solution before titration,[1]; 2:1 ratio of API to CapAcid,1.42
same,final pH,[1]; 2:1 ratio of API to CapAcid,6.08
same,pH of the solution before titration,[1]; 4:1 ratio of API to CapAcid,2.34
same,final pH,[1]; 4:1 ratio of API to CapAcid,6.01
same,solubility compared to higher API:captisol ratio,[8]; 2:1 ratio to captisol compared to 4:1 ratio,superior solubility
same,appearance at higher API:captisol ratio,[8]; 4:1 ratio to captisol,precipitation
same,concentration (FB equivalents) at which the freebase dissolved,[2]; [13],33300 µg/mL
same,concentration (FB equivalents) at which the freebase dissolved,[2]; [16],~8300 µg/mL
same,dissolution by visual inspection,"[2]; 4:1 ratio of API to CapAcid, 100 mg FB in 30 mL water, stirring for 2 days",most of the FB dissolved and the solution was cloudy
same,Reported Salt Solubility,[3],<1 mg/mL^16
same,pH of the ethanol solution prior to titration,[4],8.02
same,dissolution of 70 mg of the ethanol-prepared API-CapAcid solid in 1 mL water,[4],became cloudy but a large amount of oil remained at the bottom
NCC[C@H](O)C(=O)N[C@@H]1C[C@H](N)[C@@H](O[C@H]2O[C@H](CN)[C@@H](O)[C@H](O)[C@H]2O)[C@H](O)[C@H]1O[C@H]1O[C@H](CO)[C@@H](O)[C@H](N)[C@H]1O [Amikacin],pKa,[5],8.1^14
same,pH of the solution prior to titration,[1]; [17],1.28
same,pH of the solution prior to titration,[1]; 1.1 equivalents CapAcid,1.13 and 1.25
same,Osmolality,[10]; [18],287 mOsmol/kg
same,Osmolality,[10]; [19],504.3 mOsmol/kg
same,Osmolality,[10]; [20],287* mOsm/kg
same,Osmolality,[10]; [21],268 mOsmol/kg and 252.2 mOsmol/kg
same,Osmolality,[10]; [22],1: 268 mOsm/kg and 2: 252.3 mOsm/kg
same,Osmolality,[10]; [23],504.3* mOsm/kg
"CO[C@H]1C[C@@H]2CC[C@@H](C)[C@@](O)(O2)C(=O)C(=O)N2CCCC[C@H]2C(=O)O[C@H]([C@H](C)C[C@@H]2CC[C@@H](O)[C@H](OC)C2)CC(=O)[C@H](C)/C=C(\C)[C@@H](O)[C@@H](OC)C(=O)[C@H](C)C[C@H](C)/C=C/C=C/C=C/1C [Rapamycin, rapamycin]",reported strongest acidic pKa,[11],9.96
same,strongest basic pKa,[11],−3
N=C(N)c1ccc2cc(OC(=O)c3ccc(N=C(N)N)cc3)ccc2c1 [Nafamostat],pH of the solution before titration,[1]; 1:1 ratio of API to CapAcid,0.49
same,final pH,[1]; 1:1 ratio of API to CapAcid,6.99
same,pH of the solution before titration,[1]; 2:1 ratio of API to CapAcid,1.55
same,final pH,[1]; 2:1 ratio of API to CapAcid,6.96
same,Osmolality,"[7]; API FB with Captisol® Sodium, 1 molar equivalent relative to the cyclodextrin, after 48 hours",354.3 mOsm/Kg
same,concentration (FB equivalents) at which the freebase dissolved,[2]; [13],33300 µg/mL
same,concentration (FB equivalents) at which the freebase dissolved,[2]; [16],3000 µg/mL
same,concentration at which the freebase dissolved,"[2]; API FB with Captisol® Sodium 1 molar equivalent, water, stirring 30 minutes",~16700 µg/mL
"CN(C)c1cc(NC(=O)CNC(C)(C)C)c(O)c2c1C[C@H]1C[C@H]3[C@H](N(C)C)C(O)=C(C(N)=O)C(=O)[C@@]3(O)C(O)=C1C2=O [Tigecycline, tigecycline]",pH of the solution prior to titration,[1]; [17],5.61
same,pH of the solution prior to titration,[1]; 1.1 equivalents CapAcid,5.19 and 5.37
same,Osmolality,[10]; [18],138.3 mOsmol/kg
same,Osmolality,[10]; [19],330.3 mOsmol/kg
same,Osmolality,"[10]; 70 mg/mL FB, 1.1 equivalents CapAcid, 1 mL scale, recorded the next day after the solution had turned yellow-brown",158.7 mOsmol/kg
same,Osmolality,[10]; [20],138.3* mOsm/kg
same,Osmolality,[10]; [21],99.3 mOsmol/kg and 92.7 mOsmol/kg
same,Osmolality,[10]; [22],1: 99.3 mOsm/kg and 2: 92.7 mOsm/kg
same,Osmolality,[10]; [23],330.3* mOsm/kg
same,Reported Freebase Solubility,[3],0.45 mg/mL
same,stability of the formulation,[12],degradation after 24 hours
